Test results taken from publication PMC10247784, “Physiological activation of human and mouse bitter taste receptors by bile acids” (Communications Biology, 2023).

System: HEK293T-Gα16gust44 cells transfected with empty vector (mock)
Test: Calcium imaging assay (FLIPR), empty vector control (mock)
Type: cell-based
Experimental: This set of bile acids was chosen because of their commercial availability in high purities, their diversity within the class of bile acids and their previous detection and quantitation in human blood. Stock solutions were prepared in DMSO.
As basal growth medium for the HEK293T-Gα16gust44 cell line[17],[59] served Dulbecco’s modified eagle medium (DMEM) (Thermo Fisher Scientific, Darmstadt, Germany) supplemented with 10 % fetal bovine serum (Sigma-Aldrich, Steinheim, Germany), 2 mM L-glutamine (Sigma-Aldrich, Steinheim, Germany), 100 units/ml penicillin (Sigma Aldrich, Steinheim, Germany) and 100 µg/ml streptomycin (Sigma Aldrich, Steinheim, Germany). Growth conditions were 37 °C, 5 % CO2 and saturated air-humidity[60].
HEK293T-Gα16gust44 cells were seeded on poly-D-lysine (10 µg/ml) coated 96-well plates to reach a confluence of 40-60 % the next day. For transient transfection 150 ng of plasmid DNA containing the receptor of interest and 0.3 µl lipofectamine 2000 (Thermo Fisher Scientific, Darmstadt, Germany) per well were used and transfection took place according to the manual of lipofectamine 2000. […] The empty vector DNA (mock) was transfected as negative control[14],[41].
Cells were loaded using the calcium-sensitive fluorescent dye Fluo-4-AM (Abcam, Cambridge, Great Britain) in the presence of 2.5 mM probenecid (Sigma-Aldrich, Steinheim, Germany) the day after transfection[13],[41]. 1 h after loading, cells were washed with C1 buffer using a BioTek Cell Washer, incubated in the dark for half an hour and washed again. For automated agonist application and measurement of fluorescence changes, a FLIPR^TETRA device (Molecular Devices, San José, United States) was used. Viability of cells was tested by application of 100 nM Somatostatin 14 (Bachem, Bubendorf, Switzerland)[42].
Measured data were negative control corrected by subtracting the signal of the mock-transfected cells and exported to Microsoft Excel using the FLIPR software ScreenWorks 4.2. In Microsoft Excel software, standardization of maximum fluorescence intensities to the basal fluorescence and normalization to the buffer-only control was done to calculate the relative fluorescence changes (ΔF/F).
Initial screening experiments performed in duplicate wells were confirmed by at least one replication and representative traces were selected for display. All dose-response relationships were determined by three independent experiments (biological replicates) performed in duplicates (technical replicates). Threshold concentrations, defined as lowest substance concentrations leading to statistically significant elevated fluorescence changes in receptor-transfected cells compared with empty vector-transfected cells, were determined using SigmaPlot with Student’s t-test to evaluate statistical significance (p < 0.01).

[1] = Conc. 0,01 mM, Mock (sheet TAS2R39)
[2] = Conc. 0,1 mM, Mock (sheet TAS2R39)
[3] = Conc. 0,03 mM, Mock (sheet TAS2R39)
[4] = Conc. 0,3 mM, Mock (sheet TAS2R39)
[5] = Conc. 0,001 mM, Mock (sheet TAS2R39)
[6] = Conc. 1 mM, Mock (sheet TAS2R39)
[7] = Conc. 0,003 mM, Mock (sheet TAS2R39)
[8] = Mock (sheet Tas2r123), conc. 0,01 mM
[9] = Mock (sheet Tas2r123), conc. 0,1 mM
[10] = Mock (sheet Tas2r123), conc. 0,03 mM
[11] = Mock (sheet Tas2r123), conc. 0,3 mM
[12] = Mock (sheet Tas2r123), conc. 0,001 mM
[13] = Mock (sheet Tas2r123), conc. 0,003 mM
[14] = Mock (sheet Tas2r144), conc. 0,01 mM
[15] = Mock (sheet Tas2r144), conc. 0,1 mM
[16] = Mock (sheet Tas2r144), conc. 0,03 mM
[17] = Mock (sheet Tas2r144), conc. 0,3 mM
[18] = Mock (sheet Tas2r144), conc. 0,003 mM
[19] = Mock, sheet TAS2R4, conc. 0,01 mM
[20] = Mock, sheet TAS2R4, conc. 0,1 mM
[21] = Mock, sheet TAS2R4, conc. 0,03 mM
[22] = Mock, sheet TAS2R4, conc. 0,3 mM
[23] = Mock, sheet TAS2R4, conc. 0,001 mM
[24] = Mock, sheet TAS2R4, conc. 0,003 mM
[25] = Mock, sheet TAS2R14, conc. 0,01 mM
[26] = Mock, sheet TAS2R14, conc. 0,1 mM
[27] = Mock, sheet TAS2R14, conc. 0,03 mM
[28] = Mock, sheet TAS2R14, conc. 0,3 mM
[29] = Mock, sheet TAS2R14, conc. 0,001 mM
[30] = Mock, sheet TAS2R14, conc. 1 mM
[31] = Mock, sheet TAS2R14, conc. 0,003 mM
[32] = Mock, sheet TAS2R46, conc. 0,01 mM
[33] = Mock, sheet TAS2R46, conc. 0,1 mM
[34] = Mock, sheet TAS2R46, conc. 0,03 mM
[35] = Mock, sheet TAS2R46, conc. 0,3 mM
[36] = Mock, sheet TAS2R46, conc. 0,001 mM
[37] = Mock, sheet TAS2R46, conc. 1 mM
[38] = Mock, sheet TAS2R46, conc. 0,003 mM
[39] = Mock, sheet Tas2r108, conc. 0,01 mM
[40] = Mock, sheet Tas2r108, conc. 0,1 mM
[41] = Mock, sheet Tas2r108, conc. 0,03 mM
[42] = Mock, sheet Tas2r108, conc. 0,3 mM
[43] = Mock, sheet Tas2r108, conc. 0,001 mM
[44] = Mock, sheet Tas2r108, conc. 1 mM
[45] = Mock, sheet Tas2r108, conc. 0,003 mM
[46] = Mock, sheet Tas2r117, conc. 0,01 mM
[47] = Mock, sheet Tas2r117, conc. 0,1 mM
[48] = Mock, sheet Tas2r117, conc. 0,03 mM
[49] = Mock, sheet Tas2r117, conc. 0,3 mM
[50] = Mock, sheet Tas2r117, conc. 0,0003 mM
[51] = Mock, sheet Tas2r117, conc. 0,001 mM
[52] = Mock, sheet Tas2r117, conc. 0,003 mM
[53] = conc. 0,01 mM, Mock (sheet TAS2R1)
[54] = conc. 0,1 mM, Mock (sheet TAS2R1)
[55] = conc. 0,03 mM, Mock (sheet TAS2R1)
[56] = conc. 0,3 mM, Mock (sheet TAS2R1)
[57] = conc. 0,001 mM, Mock (sheet TAS2R1)
[58] = conc. 0,003 mM, Mock (sheet TAS2R1)

C[C@H](CCC(=O)NCC(=O)O)[C@H]1CC[C@H]2[C@@H]3[C@H](O)C[C@@H]4C[C@H](O)CC[C@]4(C)[C@H]3C[C@H](O)[C@]12C [Glycocholic Acid, glycocholic acid]
Δ F/F [1]: -0.01548
Δ F/F [2]: -0.02609
Δ F/F [3]: -0.02235
Δ F/F [4]: -0.04919
Δ F/F [5]: -0.01811
Δ F/F [6]: -0.07251
Δ F/F [7]: -0.02014
Δ F/F [8]: -0.001257
Δ F/F [9]: -0.001605
Δ F/F [10]: -0.001376
Δ F/F [11]: 0.0005119
Δ F/F [12]: -0.001339
Δ F/F [13]: -0.001948
Δ F/F (Mock (sheet Tas2r126), conc. 0,01 mM): -0.0096
Δ F/F (Mock (sheet Tas2r126), conc. 0,1 mM): -0.02403
Δ F/F (Mock (sheet Tas2r126), conc. 0,03 mM): -0.01217
Δ F/F (Mock (sheet Tas2r126), conc. 0,3 mM): -0.03338
Δ F/F (Mock (sheet Tas2r126), conc. 0,001 mM): -0.01229
Δ F/F (Mock (sheet Tas2r126), conc. 1 mM): -0.06654
Δ F/F (Mock (sheet Tas2r126), conc. 0,003 mM): -0.01228
Δ F/F [14]: 0.0008421
Δ F/F [15]: 0.001148
Δ F/F [16]: -3.983e-5
Δ F/F [17]: 0.0006824
Δ F/F [18]: 0.002307
Δ F/F [19]: -0.0004971
Δ F/F [20]: -0.0007383
Δ F/F [21]: -0.0008538
Δ F/F [22]: 3.213e-5
Δ F/F [23]: -0.0002133
Δ F/F [24]: -6.081e-5
Δ F/F [25]: -0.01698
Δ F/F [26]: -0.02625
Δ F/F [27]: -0.01883
Δ F/F [28]: -0.03707
Δ F/F [29]: -0.0212
Δ F/F [30]: -0.05126
Δ F/F [31]: -0.01715
Δ F/F [32]: -0.02275
Δ F/F [33]: -0.03044
Δ F/F [34]: -0.02768
Δ F/F [35]: -0.0463
Δ F/F [36]: -0.02143
Δ F/F [37]: -0.07983
Δ F/F [38]: -0.02717
Δ F/F (Mock, sheet Tas2r105, conc. 0,01 mM): -0.01859
Δ F/F (Mock, sheet Tas2r105, conc. 0,1 mM): -0.0309
Δ F/F (Mock, sheet Tas2r105, conc. 0,03 mM): -0.02007
Δ F/F (Mock, sheet Tas2r105, conc. 0,3 mM): -0.05122
Δ F/F (Mock, sheet Tas2r105, conc. 0,001 mM): -0.01558
Δ F/F (Mock, sheet Tas2r105, conc. 1 mM): -0.09069
Δ F/F (Mock, sheet Tas2r105, conc. 0,003 mM): -0.01717
Δ F/F [39]: -0.01889
Δ F/F [40]: -0.02753
Δ F/F [41]: -0.02185
Δ F/F [42]: -0.04768
Δ F/F [43]: -0.0151
Δ F/F [44]: -0.06489
Δ F/F [45]: -0.01714
Δ F/F [46]: -0.001257
Δ F/F [47]: -0.001605
Δ F/F [48]: -0.001376
Δ F/F [49]: 0.0005119
Δ F/F [50]: -0.001061
Δ F/F [51]: -0.001339
Δ F/F [52]: -0.001948
Δ F/F [53]: -0.001476
Δ F/F [54]: -0.002206
Δ F/F [55]: -0.001334
Δ F/F [56]: 0.00174
Δ F/F [57]: -0.0005627
Δ F/F [58]: 0.0001343

C[C@H](CCC(=O)NCCS(=O)(=O)O)[C@H]1CC[C@H]2[C@@H]3[C@H](O)C[C@@H]4C[C@H](O)CC[C@]4(C)[C@H]3C[C@H](O)[C@]12C [Taurocholic Acid, taurocholic acid]
Δ F/F [1]: -0.01563
Δ F/F [2]: -0.02822
Δ F/F [3]: -0.0235
Δ F/F [4]: -0.04268
Δ F/F [5]: -0.0133
Δ F/F [6]: -0.07998
Δ F/F [7]: -0.01654
Δ F/F [8]: -0.001211
Δ F/F [9]: -8.418e-5
Δ F/F [10]: -0.0003225
Δ F/F [11]: -0.001149
Δ F/F [12]: -0.001993
Δ F/F [13]: -0.001321
Δ F/F [14]: 0.001108
Δ F/F [15]: 0.003486
Δ F/F [16]: 0.0001367
Δ F/F [17]: -0.000351
Δ F/F [18]: -0.001298
Δ F/F [19]: -0.0002235
Δ F/F [20]: -0.0008729
Δ F/F [21]: 6.044e-5
Δ F/F [22]: 0.0004439
Δ F/F [23]: -0.0007938
Δ F/F [24]: -0.0007144
Δ F/F [25]: -0.01747
Δ F/F [26]: -0.02159
Δ F/F [27]: -0.01682
Δ F/F [28]: -0.04976
Δ F/F [29]: -0.01145
Δ F/F [30]: -0.08511
Δ F/F [31]: -0.01455
Δ F/F [32]: -0.0238
Δ F/F [33]: -0.03213
Δ F/F [34]: -0.02754
Δ F/F [35]: -0.04297
Δ F/F [36]: -0.01362
Δ F/F [37]: -0.07821
Δ F/F [38]: -0.02261
Δ F/F [39]: -0.02048
Δ F/F [40]: -0.02439
Δ F/F [41]: -0.01669
Δ F/F [42]: -0.04405
Δ F/F [43]: -0.01481
Δ F/F [44]: -0.07176
Δ F/F [45]: -0.01975
Δ F/F [46]: 0.0004005
Δ F/F [47]: 0.0008049
Δ F/F [48]: 0.000104
Δ F/F [49]: -0.0008737
Δ F/F [50]: -0.0001935
Δ F/F [51]: -0.001035
Δ F/F [52]: -0.0005321
Δ F/F [53]: -0.002439
Δ F/F [54]: -0.002601
Δ F/F [55]: -0.002464
Δ F/F [56]: -0.001298
Δ F/F [57]: -0.001546
Δ F/F [58]: -0.002596
